According to PubChem BioAssay (NCI):
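Dose response: 5 concentrations. Exposure: 48 h. Format: 96-well plates. Endpoint: linear interpolation; highest concentration if not reached. GI50: concentration for 50% inhibition of growth. TGI: total growth inhibition.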

What was measured:
Test in all cases: inhibition of tumour cell growth, NCI panel, 48 h
UACC-257 melanoma = tested on: UACC-257 melanoma
COLO 205 colon = tested on: COLO 205 colon
HS 578T breast = tested on: HS 578T breast
UO-31 renal = tested on: UO-31 renal
TK-10 renal = tested on: TK-10 renal
NCI-H23 lung = tested on: NCI-H23 lung
HCC-2998 colon = tested on: HCC-2998 colon
RXF 393 renal = tested on: RXF 393 renal
OVCAR-5 ovarian = tested on: OVCAR-5 ovarian
A549 NSCLC = tested on: A549 NSCLC

Row | Compound | GI50 (UACC-257 melanoma) [µM] | TGI (UACC-257 melanoma) [µM] | GI50 (COLO 205 colon) [µM] | TGI (COLO 205 colon) [µM] | GI50 (HS 578T breast) [µM] | TGI (HS 578T breast) [µM] | GI50 (UO-31 renal) [µM] | TGI (UO-31 renal) [µM] | GI50 (TK-10 renal) [µM] | TGI (TK-10 renal) [µM] | GI50 (NCI-H23 lung) [µM] | TGI (NCI-H23 lung) [µM] | GI50 (HCC-2998 colon) [µM] | TGI (HCC-2998 colon) [µM] | GI50 (RXF 393 renal) [µM] | TGI (RXF 393 renal) [µM] | GI50 (OVCAR-5 ovarian) [µM] | TGI (OVCAR-5 ovarian) [µM] | GI50 (A549 NSCLC) [µM] | TGI (A549 NSCLC) [µM]
1 | O=C(Nc1n[nH]c2cc(-c3cc(F)ccc3F)ccc12)C1CC1 | > 25 | > 25 | 13.1 | > 25 | 13.1 | > 25 | 16.1 | > 25 | > 25 | > 25 | 14.2 | > 25 | 14.4 | > 25 | 17.3 | > 25 | > 22.3 | > 25 | 11.4 | > 25
2 | N=C1CCCC1C(=S)SCCC(N)=O (centres undefined) |  | > 100 |  | > 100 |  | > 100 |  | > 100 |  | > 100 |  | > 100 |  | > 100 |  | > 100 |  | > 100 |  | > 100
3 | Cn1c(I)c(C#C[Si](C)(C)C)c(=O)n(C(=O)c2ccccc2)c1=O | 11.6 | 24.6 | 1.55 | 3.2 | 7.12 | 23.6 | 2.66 | 11.9 | 3.81 | 14 | 8.28 | 27.8 | 6.78 | 21.6 | 1.64 | 3.14 | 14.3 | 28.5 | 5.63 | 24.8
4 | CC1=NN(c2cccc(Cl)c2)C(=O)/C1=C\c1cn(CC(O)CN2CCCCC2)c2ccccc12 (centres undefined) | 2.35 | 4.62 | 1.73 | 3.26 | 6.14 | 33.6 | 1.73 | 7.12 | 7.51 | 21.3 | 12.4 | 32.4 | 6.12 | 19.2 | 4.97 | 17.5 | 14.6 | 33.9 | 24.6 | 72.9
5 | N#C/C(=C\c1ccc2[nH]ccc2c1)C(=O)NCCCCNC(=O)/C(C#N)=C/c1ccc2[nH]ccc2c1 |  | > 31.6 |  | > 31.6 |  | > 10 |  | > 31.6 |  | > 31.6 |  | > 31.6 |  | > 31.6 |  | > 10 |  | > 31.6 |  | > 100
6 | CCOC(=O)Nc1ccc2nc(-c3cscn3)[nH]c2c1 | 5.21 | > 100 | 3.64 | 18.9 | 8.3 | 92.6 | 8.77 | > 100 | 28.6 | > 100 | 8.47 | > 100 | 18.5 | > 100 | 2.41 | 13.6 | 26.9 | > 100 | 5.99 | > 100
7 | NC(N)=N/N=C\c1ccc(OCc2ccccc2)cc1 | 1.61 | 3.31 | 1.74 | 3.44 | 1.75 | 4.81 | 2.7 | 17.5 |  |  | 9.84 | 24.6 | 1.67 | 3.2 | 1.79 | 4.26 | 2.95 | 15.5 | 3.31 | 13.2
8 | CN(C)CCC(=O)Nc1ccc(-n2cc(-c3cccc(NC(=S)Nc4cccc(-c5cn(-c6ccc(NC(=O)CCN(C)C)cc6)nn5)c4)c3)nn2)cc1 | 26.2 | 67.4 | 14.2 | 45.7 | 33.4 | > 100 |  |  | 83.7 | > 100 | 57.2 | > 100 | > 100 | > 100 | > 100 | > 100 | 20.6 | 52.8 | 27.8 | > 100
9 | CSc1nc(Nc2cccc(NC(=O)CCl)c2)c(C#N)c(-c2cccc([N+](=O)[O-])c2)n1 | 2.18 | 5.2 | 1.82 | 3.54 | 3.21 | 30.7 | 1.62 | 5.73 | 4.2 | 10.9 | 1.7 | 4.35 | 2.07 | 4.37 | 1.54 | 3.22 | 2.45 | 6.13 | 16.6 | 49.7
10 | O=C1c2cccc3cccc(c23)C(=O)N1CCCCCN1CCN(CCN=c2cc3n(-c4ccc(Cl)cc4)c4ccccc4nc-3cc2Nc2ccc(Cl)cc2)CC1 | 13.7 | 31.1 | 2.38 | > 50 | 36.8 | > 50 |  |  | 25 | > 50 | 8.52 | 22.3 | 8.93 | 31.4 | 11.2 | > 50 | 10.2 | 20.1 | 25.9 | > 50
11 | Nc1cc2c3c(cccc3c1)C(=O)N(CCN1CCCC1)C2=O | 3.35 | 24.5 | 1.68 | 10.3 | 4.83 | 35 | 2.35 | > 100 | 5.49 | 33.7 | 3.33 | 22.8 | 2.78 | 15 | 6.43 | 42.3 | 4.73 | > 57.6 | 1.79 | > 100
12 | CCCC(=O)O[C@]1(C)CC[C@@H]2[C@H]3[C@@H]1[C@@H]1C[C@@](C)(O)[C@H](OC)CC[C@](C)(OC(=O)[C@@H]2C)[C@H]3O1 | 24.5 | 60.7 | 33.7 | > 100 | 28.8 | 72.7 | 40.4 | > 100 | 28.8 | 87.4 | 96.1 | > 100 | 17.5 | 31.2 | 23.2 | 72.9 | 58.9 | > 100 | 40.6 | > 100
13 | Clc1ccccc1C(Nc1cnccn1)Nc1cnccn1 |  | > 100 |  | > 100 |  | > 100 |  | > 100 |  | > 100 |  | > 100 |  | > 100 |  | > 100 |  | > 100 |  | > 100
